According to patent US6960592B2, “1,6-dihydro-7H-pyrazolo[4,3-d]pyrimidin-7-one compound for the treatment of impotence” (priority 2001, dated 2005):

Tests used:
[1] = Toxicity test, LD50 by Bliss method, oral gavage; settings: mouse, in vivo, mice, orally by gavage, confidence limit of 95% 772.5-1052.1 mg/kg, read-out: half-lethal dosage (LD50)
Experimental: The confidence limit of 95% is 772.5-1052.1 mg/kg.

rats with testis removed = test: Penis erection test in rats with testis removed; assay type: in vivo
Text: Test 1. Penis erection test of the compound formula (I′) in rats with testis removed

mice with testis removed = test: Effect on the sexual function in mice with testis removed; assay type: in vivo
Text: Test 2. Effect of the compound of formula (I′) on the sexual function in mice with testis removed

male mice = settings: orally, single dose, from Chinese Journal of Clinical Pharmacology and Therapeutics 1999, 4(3), 237-240; cited from earlier work

| SMILES | LD50 [1] [mg/kg] | latent period of penis erection by electric irritation (10V) (rats with testis removed; dosage 12 mg/kg, P<0.01) | latent period of penis erection by electric irritation (10V) (rats with testis removed; dosage 24 mg/kg, P<0.05) | latent period which male mice catch female mice (mice with testis removed; dosage 12 mg/kg, P<0.01) | times of back-climbing on female mice by male mice (times of sexual intercourse) (mice with testis removed; dosage 12 mg/kg, P<0.01) | latent period which male mice catch female mice (mice with testis removed; dosage 24 mg/kg, P<0.05) | times of back-climbing on female mice by male mice (times of sexual intercourse) (mice with testis removed; dosage 24 mg/kg, P<0.05) | latent period of penis erection by electric irritation (10V) (rats with testis removed; sildenafil comparator, dose not given, P<0.01) | LD50 (male mice) [mg/kg] |
| --- | --- | --- | --- | --- | --- | --- | --- | --- | --- |
| CCCc1nn(C)c2c(=O)[nH]c(-c3cc(S(=O)(=O)N4C[C@@H](C)N[C@@H](C)C4)ccc3OCC)nc12 [compound of formula (I′), 5-[[2-ethoxy-5-(cis-2,6-dimethylpiperazin-4-ylsulphonyl)phenyl]]-1-methyl-3-n-propyl-7,6-dihydro-1H-pyrazolo[4,3-d]pyrimidin-7-one] | 902 | significantly shortened | significantly shortened | significantly shortened | significantly increased | significantly shortened | significantly increased | – | – |
| CCCc1nn(C)c2c(=O)[nH]c(-c3cc(S(=O)(=O)N4CCN(C)CC4)ccc3OCC)nc12 [sildenafil, 1-[4-ethoxy-3-(6,7-dihydro-1-methyl-7-oxo-3-propyl-1H-pyrazolo[4,3-d]pyrimidin-5-yl)phenylsulphonyl]-4-methylpiperazine, reference compound] | – | – | – | – | – | – | – | significantly shortened | 625 |
